Tested on: glucose transporter
Test: [3H]dGlc uptake with unlabeled carbohydrates (affinity for the glucose transporter) in C2 myotubes
Format: cell-based, mouse
Protocol: FIG. 6: Lack of affinity of D-xylose for the glucose transporters. C2 myotubes preconditioned with 20 mM glucose were subjected to [^3H]dGlc uptake assay (0.1 mM dGlc) with increasing concentrations of unlabeled dGlc, glucose or xylose. The unlabeled carbohydrates were added to the [^3H]dGlc solution in the uptake assay.
The inventors have also determined the affinity of D-xylose for the glucose transporter. C2 myotubes preconditioned with 20 mM glucose were subjected to [^3H]dGlc uptake assay (0.1 mM dGlc) in the presence of increasing concentrations of unlabeled dGlc, glucose or xylose. The results of these experiments are depicted in FIG. 6. The affinity of D-xylose for the glucose transporter is 2 orders of magnitude lower compared to glucose. The final concentration of dGlc in the assay was 0.1 mM.

## O=C[C@H](O)[C@@H](O)[C@H](O)CO [D-xylose]
0.1 mM dGlc (FIG. 6)
  affinity for the glucose transporter compared to glucose: 2 orders of magnitude lower
0.1 mM dGlc, increasing unlabeled carbohydrate
  competition with [3H]dGlc: much weaker competitor
Over 0.1 mM dGlc
  molar excess necessary to achieve 50% inhibition of transport: at least 100 fold molar excess

From patent US7812142B2, “Pentose derivatives as anti-hyperglycemic drugs” (Yissum Research Development Company of the Hebrew …, priority 2002, dated 2010)
